How the values were obtained:
[1] = MRT (0 to infinity) in Sprague-Dawley rat at 1 mg/kg, iv measured upto 24 hrs by LC-MS/MS analysis; assay type: ADME, organism-based; conditions: in vivo
[2] = Acute toxicity in 12 hr fasted male CD-1(ICR) mouse assessed as pathological damage in liver at 2 g/Kg, IG measured after 14 days by H and E staining based analysis; assay type: tissue-based; conditions: in vivo, po, 2000 mg/kg, 336 h, time 14 day
[3] = target: Voltage-gated inwardly rectifying potassium channel KCNH2 (Homo sapiens, UniProt Q12809); experiment: Inhibition of hERG expressed in CHO cells by Qpatch assay; assay type: toxicity, cell-based
[4] = test system: Human immunodeficiency virus 1; experiment: Antiviral activity against wild type HIV-1 IIIB harboring reverse transcriptase Y181C mutant infected in human MT4 cells assessed as protection against virus-induced cytopathic effect incubated for 5 days by MTT assay; assay type: functional, organism-based; conditions: Human immunodeficiency virus 1, IIIB, MT4, 120 h
[5] = AUC (0 to infinity) in Sprague-Dawley rat at 10 mg/kg, po measured upto 24 hrs by LC-MS/MS analysis; assay type: ADME, organism-based; set-up: dose 10 mg/kg, time < 24 hrs, route po; conditions: in vivo
[6] = Resistant factor, ratio of EC50 for antiviral activity against HIV-1 IIIB harboring reverse transcriptase Y188L mutant to EC50 for antiviral activity against wild type HIV-1 IIIB; assay type: functional
[7] = Cmax in Sprague-Dawley rat at 10 mg/kg, po measured upto 24 hrs by LC-MS/MS analysis; assay type: ADME, organism-based; set-up: time < 24 hrs, dose 10 mg/kg, route po; conditions: in vivo
[8] = Acute toxicity in 12 hr fasted male CD-1(ICR) mouse assessed as pathological damage in brain at 2 g/Kg, IG measured after 14 days by H and E staining based analysis; assay type: tissue-based; conditions: in vivo, po, 2000 mg/kg, 336 h, time 14 day
[9] = Half life in Sprague-Dawley rat at 1 mg/kg, iv measured upto 24 hrs by LC-MS/MS analysis; assay type: ADME, organism-based; conditions: in vivo
[10] = Tmax in Sprague-Dawley rat at 1 mg/kg, iv measured upto 24 hrs by LC-MS/MS analysis; assay type: ADME, organism-based; conditions: in vivo
Cytochrome P450 3A4 [11] = target: T1, Cytochrome P450 3A4 (Homo sapiens, UniProt P08684); experiment: Inhibition of CYP3A4 in human liver microsomes using midazolam as substrate incubated for 15 to 45 mins in presence of NADPH; assay type: ADME, Microsome
[12] = Acute toxicity in 12 hr fasted male CD-1(ICR) mouse assessed as pathological damage in spleen at 2 g/Kg, IG measured after 14 days by H and E staining based analysis; assay type: tissue-based; conditions: in vivo, po, 2000 mg/kg, 336 h, time 14 day
[13] = Resistant factor, ratio of EC50 for antiviral activity against HIV-1 IIIB harboring reverse transcriptase […] mutant to EC50 for antiviral activity against wild type HIV-1 IIIB; assay type: functional
Cytochrome P450 3A4 [14] = target: T1, Cytochrome P450 3A4; experiment: Inhibition of CYP3A4 in human liver microsomes using testosterone as substrate incubated for 15 to 45 mins in presence of NADPH; assay type: ADME, Microsome
[15] = AUC (0 to infinity) in Sprague-Dawley rat at 1 mg/kg, iv measured upto 24 hrs by LC-MS/MS analysis; assay type: ADME, organism-based; set-up: time < 24 hrs, dose 1 mg/kg, route iv; conditions: in vivo
[16] = Cmax in Sprague-Dawley rat at 1 mg/kg, iv measured upto 24 hrs by LC-MS/MS analysis; assay type: ADME, organism-based; set-up: time < 24 hrs, dose 1 mg/kg, route iv; conditions: in vivo
[17] = Acute toxicity in 12 hr fasted male CD-1(ICR) mouse assessed as changes in body weight at 2 g/Kg, IG measured after 14 days; conditions: in vivo, po, 2000 mg/kg, 336 h, time 14 day
[18] = Acute toxicity in 12 hr fasted female CD-1(ICR) mouse assessed as pathological damage in spleen at 2 g/Kg, IG measured after 14 days by H and E staining based analysis; assay type: tissue-based; conditions: in vivo, po, 2000 mg/kg, 336 h, time 14 day
[19] = Acute toxicity in 12 hr fasted female CD-1(ICR) mouse assessed as changes in body weight at 2 g/Kg, IG measured after 14 days; conditions: in vivo, po, 2000 mg/kg, 336 h, time 14 day
[20] = Acute toxicity in 12 hr fasted female CD-1(ICR) mouse assessed as behavioral abnormalities at 2 g/Kg, IG measured after 14 days; conditions: in vivo, po, 2000 mg/kg, 336 h, time 14 day
[21] = MRT (0 to infinity) in Sprague-Dawley rat at 10 mg/kg, po measured upto 24 hrs by LC-MS/MS analysis; assay type: ADME, organism-based; conditions: in vivo
Cytochrome P450 2C19 = Cytochrome P450 2C19 (Homo sapiens, UniProt P33261); experiment: Inhibition of CYP2C19 in human liver microsomes using S-mephenytoin as substrate incubated for 15 to 45 mins in presence of NADPH; assay type: ADME, Microsome
[22] = test system: Human immunodeficiency virus 1; experiment: Antiviral activity against wild type HIV-1 IIIB infected in human MT4 cells assessed as protection against virus-induced cytopathic effect incubated for 5 days by MTT assay; assay type: functional, organism-based; conditions: Human immunodeficiency virus 1, IIIB, MT4, 120 h

T1 sequence (P08684 whole entry): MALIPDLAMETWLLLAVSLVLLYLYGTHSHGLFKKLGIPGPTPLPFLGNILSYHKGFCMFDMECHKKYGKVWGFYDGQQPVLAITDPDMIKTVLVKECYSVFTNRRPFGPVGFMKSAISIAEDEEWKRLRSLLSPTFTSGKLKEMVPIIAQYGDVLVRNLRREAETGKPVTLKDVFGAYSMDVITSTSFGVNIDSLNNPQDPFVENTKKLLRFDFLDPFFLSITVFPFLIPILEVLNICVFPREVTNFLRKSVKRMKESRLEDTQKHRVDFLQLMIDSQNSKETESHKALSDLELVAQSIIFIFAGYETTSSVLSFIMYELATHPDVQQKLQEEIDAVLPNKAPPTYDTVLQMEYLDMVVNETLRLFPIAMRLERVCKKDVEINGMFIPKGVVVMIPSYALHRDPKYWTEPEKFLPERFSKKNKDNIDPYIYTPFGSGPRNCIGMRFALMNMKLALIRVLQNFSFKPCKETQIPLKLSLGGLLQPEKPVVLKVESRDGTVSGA
Voltage-gated inwardly rectifying potassium channel KCNH2, sequence (Q12809 whole entry): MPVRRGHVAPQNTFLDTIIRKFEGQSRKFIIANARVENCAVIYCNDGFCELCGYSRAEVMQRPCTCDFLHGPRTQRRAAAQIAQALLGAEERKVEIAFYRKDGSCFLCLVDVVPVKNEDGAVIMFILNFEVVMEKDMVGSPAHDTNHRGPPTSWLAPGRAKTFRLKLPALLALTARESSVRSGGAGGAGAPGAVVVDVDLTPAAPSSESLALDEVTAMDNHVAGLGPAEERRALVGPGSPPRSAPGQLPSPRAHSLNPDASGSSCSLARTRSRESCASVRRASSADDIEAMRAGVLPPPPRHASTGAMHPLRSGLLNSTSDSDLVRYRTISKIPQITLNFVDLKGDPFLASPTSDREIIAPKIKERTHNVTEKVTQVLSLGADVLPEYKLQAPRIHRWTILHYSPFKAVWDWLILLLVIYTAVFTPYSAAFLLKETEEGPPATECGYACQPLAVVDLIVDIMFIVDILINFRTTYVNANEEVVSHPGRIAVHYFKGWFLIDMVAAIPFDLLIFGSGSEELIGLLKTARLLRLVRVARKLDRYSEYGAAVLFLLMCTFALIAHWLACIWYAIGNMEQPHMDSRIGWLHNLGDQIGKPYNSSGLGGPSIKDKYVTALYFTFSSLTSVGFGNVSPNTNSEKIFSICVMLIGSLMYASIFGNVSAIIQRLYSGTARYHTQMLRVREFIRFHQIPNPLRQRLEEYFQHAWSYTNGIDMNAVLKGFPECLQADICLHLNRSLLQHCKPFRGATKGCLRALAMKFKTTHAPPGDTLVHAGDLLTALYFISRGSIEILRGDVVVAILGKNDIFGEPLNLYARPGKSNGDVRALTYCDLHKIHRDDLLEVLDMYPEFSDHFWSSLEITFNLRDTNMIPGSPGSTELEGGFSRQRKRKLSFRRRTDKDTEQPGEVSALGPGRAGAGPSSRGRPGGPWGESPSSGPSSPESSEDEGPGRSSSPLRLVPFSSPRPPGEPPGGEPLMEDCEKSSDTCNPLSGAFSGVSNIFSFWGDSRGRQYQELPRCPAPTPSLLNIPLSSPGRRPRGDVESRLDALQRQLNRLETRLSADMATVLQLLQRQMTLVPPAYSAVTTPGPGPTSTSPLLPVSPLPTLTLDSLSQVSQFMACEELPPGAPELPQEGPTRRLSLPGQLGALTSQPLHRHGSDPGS
Cytochrome P450 2C19, sequence (P33261 whole entry): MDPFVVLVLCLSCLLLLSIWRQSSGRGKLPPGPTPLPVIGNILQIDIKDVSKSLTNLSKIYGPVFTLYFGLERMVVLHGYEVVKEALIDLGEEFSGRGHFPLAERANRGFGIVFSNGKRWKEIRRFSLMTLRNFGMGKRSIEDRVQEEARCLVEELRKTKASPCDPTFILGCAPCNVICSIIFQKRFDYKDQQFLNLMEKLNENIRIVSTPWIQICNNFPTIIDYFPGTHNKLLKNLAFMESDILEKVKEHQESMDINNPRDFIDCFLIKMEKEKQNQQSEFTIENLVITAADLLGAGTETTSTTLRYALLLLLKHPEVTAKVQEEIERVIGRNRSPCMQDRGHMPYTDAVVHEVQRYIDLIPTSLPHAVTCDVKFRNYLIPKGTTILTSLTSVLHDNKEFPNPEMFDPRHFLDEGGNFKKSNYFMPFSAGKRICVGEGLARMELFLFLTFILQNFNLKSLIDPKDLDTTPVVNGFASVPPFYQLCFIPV

**Q.** What does the source list for `CONC(=O)c1cnc(Nc2ccc(C#N)cc2)nc1Oc1c(C)cc(-c2ccc(C#N)cc2)cc1C`?
**A.** MRT inf [1]: 3.75 h; Activity [2]: Non-Toxic; IC50 [3]: > 40 µM; EC50 [4]: 0.029 µM; AUC(0-inf) [5]: 3650 ng·h/mL; Ratio EC50 [6]: 23; Cmax [7]: 616 ng/mL; Activity [8]: Non-Toxic; half-life [9]: 3.66 h; Tmax [10]: 4.98 min; IC50 (Cytochrome P450 3A4 [11]): > 50 µM; Activity [12]: Non-Toxic; Ratio EC50 [13]: 5.7; IC50 (Cytochrome P450 3A4 [14]): > 50 µM; AUC(0-inf) [15]: 1170 ng·h/mL; Cmax [16]: 431 ng/mL; Activity [17]: Non-Toxic; Activity [18]: Non-Toxic; Activity [19]: Non-Toxic; Activity [20]: Non-Toxic; MRT inf [21]: 5.21 h; IC50 (Cytochrome P450 2C19): 23.6 µM; EC50 [22]: 0.002 µM

Source: ChEMBL document CHEMBL5380843 (J Med Chem, 2023)
